Data set [1] relates to herpes simplex virus type 1 (HSV-1). The data set can be described thus: microbe, parasite or virus in culture. Format: cell-based. To be noted: for ID50 HSV-Vero cell: Table 8, 72 hours incubation, 50% inhibition of cytopathic effect.
The test system of data set [2] is uninfected CEM cells. The following applies: human, 7200 min.
Description: The cells and the virus were grown in LAV/CEM medium. The medium consists of RPMI 1640, supplemented with 1% L-glutamine, 100 U/ml of Penicillin, 100 μg/ml Streptomycin, 2 μg/ml Polybrene and 10% heat-inactivated fetal bovine serum (HyClone Labs).
The toxicities of the drugs were tested against uninfected CEM cells. The CEM cells were plated as described above, and culture for five days in the presence or absence of drugs. On day five 1 μCi/well of ^3 H-thymidine was added, and cells were harvested 3 hours later. The results are expressed as toxic dose 50 (TD50) and represent the amount of drug necessary to reduce the cell proliferation by 50% as measured through thymidine incorporation.
Data set [3] relates to Vero cell. To be noted: Table 8; 50% cytotoxicity against Vero cell without viral infection; 4320 min.
The nature of data set [4]: Solubility in water and organic solvents. Format: physicochemical.
Data set [5] deals with Madin Darby canine kidney (MDCK) cell. Nature of the data set: Drug-induced cytotoxicity against MDCK cells without viral infection (dye-uptake assay). The following applies: Table 8; 50% cytotoxicity against MDCK cell without viral infection; 4320 min.
Data set [6] deals with reverse transcriptase (RTase) derived from avian myeloblastosis virus (AMV). The data set is classed as biochemical.
Data set [7] has as its system human immunodeficiency virus (HIV) LAV/BRU. The following applies: CEM-F cells; drug amount reducing viral replication by 50%.
Description: AZT was included as a reference compound. The methodology used in this assay is described below:
The cells and the virus were grown in LAV/CEM medium. The medium consists of RPMI 1640, supplemented with 1% L-glutamine, 100 U/ml of Penicillin, 100 μg/ml Streptomycin, 2 μg/ml Polybrene and 10% heat-inactivated fetal bovine serum (HyClone Labs). […] The virus was adapted to CEM cells, and infectious virus stocks were stored as cell-free supernatant fluids in 1 ml aliquots in liquid nitrogen. The titer of the stock was determined by an end point titration method using CEM cells in 96-well microtiter plates. The titration was done with ten replicates for each point, and the 50% tissue culture infective dose (TCID50) was calculated using the method of Reed and Muench (Amer. J. Hygiene, 27/3 (1938) 493-497).
The CEM cells (1.5×10^5 cells/ml) were placed in 96-well plates and incubated with virus for 45 minutes. After 45 minutes each compound was added in quadruplicate. At the end of the day, six supernatants were tested for presence of viral core protein p24gag in an antigen capture ELISA (Genetic Systems Company). The OD readings (absorbance at 450/630 nm) fall into three categories: Experimentals=values from wells containing cells, viral inoculum and drug; Controls=values from wells with cells and virus (100%); and Background=values from wells with viral inoculum alone. […]
Data set [8] relates to HIV antigen. The data set can be described thus: Expression of HIV antigen in infected MT-4 cells by immunofluorescence. Format: cell-based. How it is done: Expression of HIV antigen was examined by immunofluorescence. When MT-4 cells were infected with HIV, viral antigen positive cells increased with incubation time and all the cells became positive on day 6 after infection.

Data set [9] relates to influenza virus A. The data set can be described thus: microbe, parasite or virus in culture. The data set is classed as cell-based. The following applies: 72 hours incubation, 50% inhibition of cytopathic effect; for ID50 Influenza virus-MDCK cell: Table 8; for IC50: unidentified influenza virus, MDCK, 72 h.
Data set [10] is described as follows: Cellular toxicity in CEM-SS cells (XTT assay). The data set is classed as cell-based. To be noted: human. The text has this:
CEM-SS cells were obtained from Owen Weislow at the National Cancer Institute.

Data set [11] relates to human immunodeficiency virus (LAVBRU strain). The data set can be described thus: Anti-HIV XTT assay in CEM-SS cells. The following applies: Human immunodeficiency virus 1, 144 h, six days post infection, read-out: ED50 (XTT assay). Format: cell-based.
Excerpt: The antiviral effect is expressed as the concentration of compound which increases the number of viable cells in infected cultures to 50% that of the untreated, uninfected control cultures (ED50) The cellular toxicity is expressed as the concentration of compound which reduces the number of viable cells to 50% that of the untreated control (TD50).
The nature of data set [12]: in vitro. The following applies: monkey, vero cells.
The nature of data set [13]: Drug-induced cytotoxicity against MDCK cells without viral infection (dye-uptake assay). The following applies: dog, mdck cells, TD50 Influenza virus-MDCK cell.

We go through five molecules from patent US5098708A.

The structures appear in SMILES notation. In brackets after ≈: the same amount, converted by molar mass. Where two headings read alike, the source gives them in different places. Bounds are passed on as bounds.

Turning to `C/C1=C\C=C\C2(C)C=C(CO[C@H]3O[C@H](CO)[C@H](O)[C@H](O)[C@H]3O)C(C)CC23OC(O)C(C3=O)C(O)/C=C/C2(C)C=C(C=O)C(C)CC23OC(O)C(C3=O)C(O)/C(C)=C/C=C/C2C=C(CO[C@H]3O[C@H](CO)[C@H](O)[C@H](O)[C@H]3O)C(C)CC23OC(O)C(C3=O)C(O)/C=C/C2(C)C=C(C=O)C(C)CC23OC(O)C(C3=O)C1O` (stereo partly shown), the “ID50 HSV-Vero cell” value in [1] stood at 11 µg/mL (≈ 7.3 µM). For the same molecule, the “TD50 (thymidine incorporation)” value in [2] was greater than 100 µg. In addition, the “TD50 HSV-Vero cell” value in [3] is greater than 400 µg/mL. Also, in data set [4], the Solubility in acetone result is listed as “slightly soluble”. For the same molecule, the “Solubility in dimethylformamide and dimethyl sulfoxide” value in [4] was “soluble”. For the same molecule, in data set [4], the Solubility in methanol result is “slightly soluble”. Also, in data set [4], the “Solubility in other organic solvents” value is recorded as “practically insoluble”. For the same molecule, the Solubility in water entry in [4] is “soluble”. For the same molecule, the “TD50 Influenza virus-MDCK cell” value in data set [5] was determined as 250 µg/mL. In addition, the “AMV reverse transcriptase % inhibition” value in data set [6] (3 μg/ml) is listed as 96.9%; in data set [6] (6 μg/ml), 98.1%; in data set [6] (12.5 μg/ml) it was 98.2%; in data set [6] (25 μg/ml) it was 98.8%; in [6] (50 μg/ml) it was 99.5%; in data set [6] (100 μg/ml), 99.7%. Also, the “AMV reverse transcriptase activity, count” value in data set [6] (3 μg/ml) is 1,584 ± 1,292 cpm; in data set [6] (6 μg/ml) it was 976 ± 145 cpm; in data set [6] (12.5 μg/ml) it was 920 ± 271 cpm; in data set [6] (25 μg/ml) it was 621 ± 402 cpm; in data set [6] (50 μg/ml), 235 ± 73 cpm; in data set [6] (100 μg/ml), 159 ± 14 cpm. Also, in data set [6] (concentrations higher than 3 μg/ml), the “Inhibition of 1 unit of AMV RTase activity” value was “more than 95%”. The “ED50 (p24gag antigen capture assay)” value in [7] was 3.2 µg. Besides, in data set [8] (HIV-infected MT-4 cells cultured in the presence of compound), the “HIV antigen positive cells (suppression)” value is given as “significantly suppressed”. Moreover, the “HIV antigen positive cells” value in data set [8] (HIV-infected MT-4 cells, concentration higher than 50 μg/ml, FIG. 10) is on record as “less than 1%”. In [9], the “ID50 Influenza virus-MDCK cell” value was found to be 150 µg/mL (≈ 99.5 µM).

In the case of `C/C1=C\C=C\C2C=C(CO[C@H]3O[C@H](CO)[C@H](O)[C@H](O)[C@H]3O)C(C)CC23OC(O)C(C3=O)C(O)/C=C/C2(C)C=C(CO)C(C)CC23OC(O)C(C3=O)C(O)/C(C)=C/C=C/C2(C)C=C(CO[C@H]3O[C@H](CO)[C@H](O)[C@H](O)[C@H]3O)C(C)CC23OC(O)C(C3=O)C(O)/C=C/C2(C)C=C(C=O)C(C)CC23OC(O)C(C3=O)C1O` (stereo partly shown), the “ID50 HSV-Vero cell” value in [1] is 11 µg/mL (≈ 7.29 µM). For the same molecule, the “TD50 (thymidine incorporation)” value in data set [2] was greater than 100 µg. Further, the “TD50 HSV-Vero cell” value in data set [3] was greater than 200 µg/mL. In addition, in [4], the Solubility in acetone entry is “slightly soluble”; the “Solubility in dimethylformamide and dimethyl sulfoxide” value is given as “soluble”; the Solubility in methanol entry is recorded as “slightly soluble”; the “Solubility in other organic solvents” value is recorded as “practically insoluble”. For the same molecule, in data set [4], the Solubility in water result is “soluble”. Further, the “TD50 Influenza virus-MDCK cell” value in data set [5] came to 150 µg/mL. In data set [7], the “ED50 (p24gag antigen capture assay)” value turned out to be 2.5 µg. Further, the “ID50 Influenza virus-MDCK cell” value in [9] is greater than 150 µg/mL.

In the case of `Cc1cn([C@H]2C[C@H](N=[N+]=[N-])[C@@H](CO)O2)c(=O)[nH]c1=O` [AZT], the CC50 at 144 h in data set [10] was greater than 500 µg/mL. The “TD50 (thymidine incorporation)” value in [2] is 4.2 µg. Besides, the EC50 in [11] was 5 ng/mL (≈ 0.0187 µM).

`Nc1nc2c(ncn2COCCO)c(=O)[nH]1` [Acyclovir]: the IC50 in data set [1] (Human alphaherpesvirus 1, Vero, 72 h, read-out: ID50 HSV-Vero cell) worked out at 0.09 µg/mL (≈ 0.4 µM). This molecule also yielded a CC50 at 72 h in data set [12] greater than 100 µg/mL.

Regarding `NC(=O)c1ncn([C@@H]2O[C@H](CO)[C@@H](O)[C@H]2O)n1` [Ribavirin, reference compound], the CC50 at 72 h in [13] (Table 8, 50% cytotoxicity against MDCK cell without viral infection) was greater than 200 µg/mL; in [13] (Table 10, 50% cytotoxicity against MDCK cells without viral infection) it was greater than 100 µg/mL. Besides, the IC50 was 15 µg/mL (≈ 61.4 µM) in [9] (read-out: ID50 Influenza virus-MDCK cell, Table 8) and 9.5 µg/mL (≈ 38.9 µM) in [9] (read-out: ID50 Influenza virus-MDCK cell, Table 10).
